{"source": "patent US11969448B2", "about": "“Method for improving an effect of chemotherapeutic drug of gemcitabine on inhibiting pancreatic cancer and improving side effect of chemotherapeutic drug of Gemcitabine” (GENMONT BIOTECH INC., priority 2020, dated 2024)", "key": {"[1]": {"system": "Caerulein-treated LSL-KrasG12D/−-Pdx-1-Cre (KC) gene transgenic mice (pancreatic intraepithelial neoplasia lesions)", "experiment": "Histological staining (H&E, vimentin and Ki67 immunohistochemistry) of the pancreas in the mouse model of pancreatic cancer", "format": "in vivo", "conditions": "FIG. 3", "description": "After the mice were sacrificed, the pancreas tissue was collected, fixed with formalin solution (TONYAR biotech. Inc., Taiwan), embedded in paraffin, tissue sectioned, and then subjected to H&E staining and immunohistochemical staining. […]"}, "[2]": {"system": "BXPC-3 pancreatic cancer cells", "experiment": "MTT test, Experiment 2: BXPC-3 cells treated with probiotic lysates combined with Gemcitabine", "format": "cell-based", "conditions": "Gemcitabine 10 ng/mL alone; cultured 0 to 6 days; FIG. 7A", "procedure": "2500 BXPC-3 pancreatic cancer cells were seeded into each well of a 96-well plate, and the 96-well plate was incubated at 37° C. overnight. After the old cell culture medium was aspirated, the fresh culture medium containing the lysate of the Lactobacillus reuteri GMNL-89, the lysate of the Lactobacillus paracasei GMNL-133 (25 ug/mL of concentration), or the lysate of the Lactobacillus reuteri GMNL-89 and the Lactobacillus paracasei GMNL-133 (i.e., the probiotic composition of the present disclosure) were respectively mixed with the fresh culture medium containing the chemotherapeutic drug of Gemcitabine (10 ng/mL of concentration) to be added to the BXPC-3 pancreatic cancer cells. Then, the BXPC-3 pancreatic cancer cells were cultured for 0 to 6 days. At different time points, based on day 0, the cell viability rate was determined by the MTT test, and the cell viability rate at different time points was calculated."}, "[3]": {"experiment": "Side effects of Gemcitabine: body and muscle weight, serum biochemical and blood cell analysis in KC mice", "format": "in vivo", "from_the_text": "In the experiment, a 12-week-old LSL-Kras^G12D/−-Pdx-1-Cre (KC) gene transgenic mouse was used to simulate a mouse model of pancreatic cancer. The national laboratory animal center of National Applied Research Laboratories was entrusted to introduce the experimental animals from the Frederick National Laboratory for cancer research, and then conduct breeding, reproducing and embryo freezing, and then the experimental animals are bred in the animal center attached to Chung Shan Medical University in Taichung. The environment for feeding animals is controlled at a room temperature (20 to 23° C.) and in a humidity of 50 to 60%, and the light cycles of day and night are maintained for 12 hours respectively. Experimental animals are allowed to eat and drink freely. All animal experiment procedures were carried out in accordance with the protocol approved by institutional animal care and use committee (IACUC) of Chung Shan Medical University.\nIn order to induce acute pancreatitis in mice, Caerulein (25 μg/kg/h) were injected into the abdominal cavity of the mice by intraperitoneal (IP) injection every 7 hours 3 days before and 1 day before the experiment. The experimental mice were was divided into 4 groups. The chemotherapeutic drug of Gemcitabine was given with different concentrations (20, 50, 100, 200 mg/kg of body weight), and was administered by intraperitoneal injection for 4 consecutive weeks, once every 3 days, 10 times in total.\nTwo strains of the Lactobacillus paracasei GMNL-133 and the Lactobacillus reuteri GMNL-89 were used in the experiment, respectively with the ratio of 1:0.1 (1.64×10^7 CFU/0.02 kg of body weight: 1.64×10^6 CFU/0.02 kg of body weight) and the ratio of 1:1 (1.64×10^7 CFU/0.02 kg of body weight: 1.64×10^7 CFU/0.02 kg of body weight). The dosage used is based on that 12.3 times the recommended daily intake per kilogram of body weight for humans is 1 time the dose for mice. The probiotic composition was fed into the stomach of the mice by tube feeding, 5 days a week, once a day, 0.2 mL each time.\nIn order to study the adverse effects of the Caerulein, the chemotherapeutic drug of the Gemcitabine, and probiotic composition on serum biochemistry and blood cells, blood was collected after cardiac puncture in anesthetized mice, and the blood was immediately sent to Axel Biotechnology Inc. (Taichung) to perform blood tests and serum biochemical analysis."}, "[4]": {"system": "advanced pancreatic cancer", "conditions": "first-line chemotherapy for advanced pancreatic cancer; background statement; cited from earlier work"}, "[5]": {"conditions": "Gemcitabine 20, 50, 100, 200 mg/kg IP alone, compared with untreated mice"}, "[6]": {"conditions": "Caerulein-treated KC mice, Gemcitabine 200 mg/kg alone"}}, "data": [{"smiles": "Nc1ccn([C@@H]2O[C@H](CO)[C@@H](O)C2(F)F)c(=O)n1", "note": "[Gemcitabine]", "values": [{"measurement": "tissue staining results at the two high doses", "setting": "[1]; Gemcitabine 100 mg/kg and 200 mg/kg", "value": "excellent results"}, {"measurement": "expressions of the vimentin and the cell proliferation marker of Ki67", "setting": "[1]; [5]", "value": "also lower"}, {"measurement": "pancreatic intraepithelial neoplasia lesion grades (H&E staining)", "setting": "[1]; [5]", "value": "lower than those of the untreated mice"}, {"measurement": "cell viability rate (time of lowest value)", "setting": "[2]", "value": "reached the lowest on the sixth day"}, {"measurement": "death of BXPC-3 pancreatic cancer cells (onset)", "setting": "[2]", "value": "caused the death of the BXPC-3 pancreatic cancer cells from the second day"}, {"measurement": "ALT", "setting": "[3]; [6]", "value": 60, "unit": "U/L"}, {"measurement": "AST", "setting": "[3]; [6]", "value": 351, "unit": "U/L"}, {"measurement": "Body weight", "setting": "[3]; [6]", "value": "21.10 ± 1.44", "unit": "g"}, {"measurement": "Gastrocnemius muscle weight", "setting": "[3]; [6]", "value": "0.13 ± 0.00", "unit": "g"}, {"measurement": "Platelets", "setting": "[3]; [6]", "value": 1222.00, "unit": "K/μL"}, {"measurement": "Red blood cell", "setting": "[3]; [6]", "value": 8.70, "unit": "M/μL"}, {"measurement": "White blood cell", "setting": "[3]; [6]", "value": 3.04, "unit": "K/μL"}, {"measurement": "body weight and muscle (gastrocnemius) weight", "setting": "[3]; KC mice treated with Caerulein (25 μg/kg), Gemcitabine alone", "value": "lose weight and muscle (gastrocnemius) weight significantly"}, {"measurement": "liver function index of AST and ALT", "setting": "[3]; KC mice treated with Caerulein (25 μg/kg), only Gemcitabine", "value": "prone to elevate"}, {"measurement": "5-year survival rate of patients", "setting": "[4]", "value": 30, "unit": "%"}]}]}
